Results on four compounds are retold here after patent publication US11578055B2, “Triazacyclododecansulfonamide (“TCD”)-based protein secretion inhibitors” (KEZAR LIFE SCIENCES, priority 2018, dated 2023).

Where only a bound is given, the exact number is not on record here.

The subject of series [1] is PD1 signal sequence plus 10 amino acids fused to Gaussia Luciferase (PD1-ss+10aa/Gaussia Luciferase). The experiment in a line: Dox Induced PD1-ss-Gluc Assay. As to conditions: 24 hr, Dox inducible, 293FRT/TO cells; read-out: 24 hr Dox Inducible PD1ssGluc 293FRT/TO: Mean IC50. The series is classed as cell-based. Summed up:
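Stable Flp-In 293 T-REx line expressing the fusion under tetracycline-inducible control, plated the day before assay. Compound dilutions added with doxycycline and incubated at 37 °C, 5% CO2; unspecified stereocentres mean data refer to stereoisomer mixtures.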

For series [2], the system named is full length TNFα (amino acids 1-233) fused to Gaussia Luciferase. The experiment in a line: Dox Induced TNFα-FL-Gluc Assay. The series is classed as cell-based. The note with it: 24 hr, Dox inducible, 293FRT/TO cells; read-out: 24 hr Dox Inducible TNFaFLGluc 293FRT/TO: Mean IC50. Summed up:
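Stable Flp-In 293 T-REx line expressing doxycycline-inducible full-length TNFα fused to Gaussia luciferase; cells plated the day before, then treated with compound dilutions in doxycycline-containing medium at 37° C, 5% CO2. Unspecified stereocentres mean stereoisomer mixtures were tested.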

The test system of series [3] is full length IL-2 (amino acids 1-153) fused to Gaussia Luciferase. Briefly: Dox Induced IL2-FL-Gluc Assay. Type of series: cell-based. As to conditions: 24 hr, Dox inducible, 293FRT/TO cells; read-out: 24 hr Dox Inducible IL2FLGluc 293FRT/TO: Mean IC50. The method, boiled down:
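Flp-In 293 T-REx stable line expressing full-length IL-2 (aa 1-153) with C-terminal Gaussia luciferase fusion under doxycycline-inducible control. Cells plated the day before; compound dilutions added in DMSO/media containing doxycycline, incubated at 37° C, 5% CO2.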

Series [4] relates to multiple myeloma cell line NCl-H929. Briefly: H929 Cell Viability Assay. Type of series: cell-based, human. The note with it: Homo sapiens, NCI-H929, 48 h, H929, Celltiter-Glo. The method, boiled down:
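NCI-H929 myeloma cells in RPMI 1640 with 10% FBS were treated with compound dilutions for 48 h at 37 °C, and viability was then read by CellTiter-Glo luminescence. Compounds drawn without stereochemistry were tested as stereoisomer mixtures.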
A general note: In ATP-based viability assays light output follows the ATP content of the culture.

The subject of series [5] is multiple myeloma cell line U266B1. Briefly: U266 Cell Viability Assay. The series is classed as cell-based, human. The note with it: Homo sapiens, U-266; 48 hr, U266, Celltiter-Glo. Summed up: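 U266B1 myeloma cells in RPMI 1640 with 10% FBS were treated with compound dilutions for 48 h at 37° C, 5% CO2. Viability was read as CellTiter-Glo luminescence. Data for structures drawn without stereochemistry refer to stereoisomer mixtures.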

A short description of series [6]: In Vitro Microsome Stability Assay (human). Type of series: in vitro ADME. The note with it: human liver microsomes, 30 min w/ NADPH. Summed up: (§1)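 The value reported is the percentage of parent left after 30 min, calculated from analyte/IS peak-area ratios relative to time zero by LC-MS/MS. Incubations ran at 37° C in 0.1 M potassium phosphate with NADPH and microsomes (stock 20 mg/mL), with compound added from a 0.25 mM DMSO stock. Acetonitrile containing IS stopped the reactions.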
(In general: Liver microsomes are a subcellular fraction often used to study metabolism.)

Series [7] is described as follows: In Vitro Microsome Stability Assay (mouse). The series is classed as in vitro ADME. As to conditions: mouse liver microsomes, 30 min w/ NADPH. Summed up:
as §1

The nature of series [8]: In Vitro Microsome Stability Assay (rat). Type of series: in vitro ADME. The note with it: rat liver microsomes, 30 min w/ NADPH. The method, boiled down: as §1
Series [9] can be described thus: In Vitro Microsome Stability Assay (monkey). The note with it: monkey liver microsomes, 30 min w/ NADPH. Type of series: in vitro ADME. Summed up: as §1

On to `C[C@H]1CN(S(=O)(=O)c2ccc(N(C)C)cc2)CCCN(CCC(F)(F)F)CCCN(S(=O)(=O)N2CCc3cc(Cl)ccc3C2)C1` [A165, 4-{[(3S)-5-[(6-chloro-1,2,3,4-tetrahydroisoquinolin-2-yl)sulfonyl]-3-methyl-9-(3,3,3-trifluoropropyl)-1,5,9-triazacyclododecan-1-yl]sulfonyl}-N,N-dimethylaniline], for which the IC50 in series [1] was determined as 131 nM; in series [2], 1860 nM; in series [3] it was 294 nM. Besides, the EC50 (commonly the midpoint of the concentration-response curve) in series [4] was 4090 nM; in series [5], more than 25000 nM. Besides, the “Liver Microsome Stability-% Left after 30 min w/ NADPH (%) Human” value (“Liver Microsome Stability-% Left … (%) Human” for short) in series [6] came out at 2.23%. Moreover, the “Liver Microsome Stability-% Left after 30 min w/ NADPH (%) Mouse” value (“Liver Microsome Stability-% Left … (%) Mouse” below) in [7] was 14.9%. In series [8], the “Liver Microsome Stability-% Left after 30 min w/ NADPH (%) Rat” value (shortened to “Liver Microsome Stability-% Left … (%) Rat”) was 11.9%. Also, in [9], the “Liver Microsome Stability-% Left after 30 min w/ NADPH (%) Monkey” value (shortened to “Liver Microsome Stability-% Left … (%) Monkey”) was 12.8%.

For `Cc1cccc2c1CCN(S(=O)(=O)N1CCCN(CC3CCCCC3)CCCN(S(=O)(=O)c3ccc(N(C)C)cc3)C[C@H](C)C1)C2` [A166, 4-{[(3S)-9-(cyclohexylmethyl)-3-methyl-5-[(5-methyl-1,2,3,4-tetrahydroisoquinolin-2-yl)sulfonyl]-1,5,9-triazacyclododecan-1-yl]sulfonyl}-N,N-dimethylaniline], the IC50 in series [1] was 16.7 nM; in [2], 278 nM; in series [3], 30.2 nM. Moreover, the EC50 is 548 nM in series [4] and more than 25000 nM in series [5]. For the same compound, in series [6], the “Liver Microsome Stability-% Left … (%) Human” value was found to be 14.0%. For the same compound, the “Liver Microsome Stability-% Left … (%) Mouse” value in series [7] is given as 26.4%. Besides, the “Liver Microsome Stability-% Left … (%) Rat” value in [8] is on record as 31.3%. Also, the “Liver Microsome Stability-% Left … (%) Monkey” value in series [9] is on record as 18.7%.

Take `C[C@H]1CN(S(=O)(=O)c2ccc(N(C)C)cc2)CCCN(CC(F)(F)F)CCCN(S(=O)(=O)N2CCc3cc(Cl)ccc3C2)C1` [A167, 4-{[(3S)-5-[(6-chloro-1,2,3,4-tetrahydroisoquinolin-2-yl)sulfonyl]-3-methyl-9-(2,2,2-trifluoroethyl)-1,5,9-triazacyclododecan-1-yl]sulfonyl}-N,N-dimethylaniline]: the IC50 was determined as 201 nM in series [1], 2660 nM in series [2] and 412 nM in series [3]. For the same compound, the EC50 was 6500 nM in series [4] and more than 25000 nM in series [5]. The “Liver Microsome Stability-% Left … (%) Human” value in series [6] is reported as 5.68%. The “Liver Microsome Stability-% Left … (%) Mouse” value in [7] is recorded as 18.3%. For the same compound, the “Liver Microsome Stability-% Left … (%) Rat” value in [8] stood at 9.19%. Also, in series [9], the “Liver Microsome Stability-% Left … (%) Monkey” value is on record as 73%.

Turning to `C[C@H]1CN(S(=O)(=O)c2cccc(N(C)C)c2)CCCN(CC2CCCCC2)CCCN(S(=O)(=O)N2CCc3cc(Cl)ccc3C2)C1` [A168, 3-{[(3S)-5-[(6-chloro-1,2,3,4-tetrahydroisoquinolin-2-yl)sulfonyl]-9-(cyclohexylmethyl)-3-methyl-1,5,9-triazacyclododecan-1-yl]sulfonyl}-N,N-dimethylaniline], the IC50 in series [1] was 1490 nM; in series [2] it was more than 25000 nM; in [3], 1140 nM. Further, the EC50 in series [4] and in [5] was more than 25000 nM throughout. For the same compound, in series [6], the “Liver Microsome Stability-% Left … (%) Human” value came to 25.7%. In [7], the “Liver Microsome Stability-% Left … (%) Mouse” value stood at 42%. The “Liver Microsome Stability-% Left … (%) Rat” value in series [8] amounted to 42.1%. Besides, in series [9], the “Liver Microsome Stability-% Left … (%) Monkey” value is 73%.
